# From patent USRE48461E1, “Modulation of androgen receptor expression” (Ionis Pharmaceuticals, Inc., priority 2012, dated 2021)
# Key:
# Assay type in all cases: cell-based, human
# 22RV1 cells = experiment: 22RV1 cell proliferation, ASO in combination with MDV3100 (Example 22); settings: for Proliferation (% untreated control) in 22RV1 without MDV-3100: RNAiMAX, 3 days
# Description: 22RV1 cells were plated at 2,000 cells per well in 5% CSS medium for 48 hours. […] ISIS 549148 was included as a negative control. […] After a treatment period of 3 days, the proliferative capacity of the cancer cells was measured with CellTiter 96® AQueous One Solution Cell Proliferation kit (Promega), following the manufacturer's instructions. Results are presented in Tables 58-62 as percent inhibition of proliferation, relative to non-treated cells.
# TMPRSS2 mRNA [1] = experiment: TMPRSS2 expression in C4-2B cells (Example 30); settings: 48 hrs
# Description: Cells were plated at 1,000 cells per well. […] ISIS 549148 was included as a negative control. […] After an incubation period of 48 hrs, RNA levels of AR, PSA and TMPRSS2 were measured.
# Cells were plated at 2,000 cells per well and cultured in CSS media with 1 nM DHT. […] ISIS 549148 was included as a negative control. […] After an incubation period of 48 hrs, RNA levels of AR, PSA and TMPRSS2 were measured. In the absence of DHT, AR expression in C4-2 cells was 188%, PSA expression was 43% and TMPRSS2 expression was 27% compared to the untreated control.
# full length AR mRNA = experiment: Full-length AR RNA in 22RV1 cells (complete, CSS+DHT medium); settings: RNAiMax, 48 hrs
# Description: (§1) Cells were plated at 1,000 cells per well. […] After an incubation period of 48 hrs, RNA levels of full length AR, the V7 variant, PSA and TMPRSS2 were measured.
# (§2) After an incubation period of 48 hrs, RNA levels of full length AR, the V7 variant, PSA and TMPRSS2 were measured.
# (§3) Cells were plated at 2,000 cells per well and cultured in CSS media for 16 hours. […] After 4 hrs, 1 nM DHT was added. […] After an incubation period of 48 hrs, RNA levels of AR, AR V7 variant, PSA and TMPRSS2 were measured.
# AR V7 variant mRNA = experiment: AR V7 variant RNA in 22RV1 cells; settings: RNAiMax, 48 hrs
# PSA mRNA = experiment: PSA expression in 22RV1 cells; settings: RNAiMax, 48 hrs
# Description: as §1, §2, §3
# TMPRSS2 mRNA [2] = experiment: TMPRSS2 expression in 22RV1 cells; settings: RNAiMax, 48 hrs
# Description: as §1, §2, §3
sequence,measurement,setting,value
"GGCTACTACGCCGTCA (3-10-3 (S)-cEt gapmer, chemistry not fully specified) [ISIS 549148, reference compound]",Proliferation (% untreated control) in 22RV1 cells with 0.04 μM MDV-3100,22RV1 cells; ASO dose 0.4 nM + 0.04 μM MDV-3100,106 % untreated control
same,Proliferation (% untreated control) in 22RV1 cells with 0.2 μM MDV-3100,22RV1 cells; ASO dose 0.4 nM + 0.2 μM MDV-3100,101 % untreated control
same,Proliferation (% untreated control) in 22RV1 cells with 1.0 μM MDV-3100,22RV1 cells; ASO dose 0.4 nM + 1.0 μM MDV-3100,106 % untreated control
same,Proliferation (% untreated control) in 22RV1 cells with 5.0 μM MDV-3100,22RV1 cells; ASO dose 0.4 nM + 5.0 μM MDV-3100,96 % untreated control
same,Proliferation (% untreated control) in 22RV1 without MDV-3100,22RV1 cells; ASO dose 0.4 nM,109 % untreated control
same,Proliferation (% untreated control) in 22RV1 cells with 0.04 μM MDV-3100,22RV1 cells; ASO dose 1.34 nM + 0.04 μM MDV-3100,106 % untreated control
same,Proliferation (% untreated control) in 22RV1 cells with 0.2 μM MDV-3100,22RV1 cells; ASO dose 1.34 nM + 0.2 μM MDV-3100,115 % untreated control
same,Proliferation (% untreated control) in 22RV1 cells with 1.0 μM MDV-3100,22RV1 cells; ASO dose 1.34 nM + 1.0 μM MDV-3100,95 % untreated control
same,Proliferation (% untreated control) in 22RV1 cells with 5.0 μM MDV-3100,22RV1 cells; ASO dose 1.34 nM + 5.0 μM MDV-3100,102 % untreated control
same,Proliferation (% untreated control) in 22RV1 without MDV-3100,22RV1 cells; ASO dose 1.34 nM,109 % untreated control
same,Proliferation (% untreated control) in 22RV1 cells with 0.04 μM MDV-3100,22RV1 cells; ASO dose 4.0 nM + 0.04 μM MDV-3100,100 % untreated control
same,Proliferation (% untreated control) in 22RV1 cells with 0.2 μM MDV-3100,22RV1 cells; ASO dose 4.0 nM + 0.2 μM MDV-3100,110 % untreated control
same,Proliferation (% untreated control) in 22RV1 cells with 1.0 μM MDV-3100,22RV1 cells; ASO dose 4.0 nM + 1.0 μM MDV-3100,98 % untreated control
same,Proliferation (% untreated control) in 22RV1 cells with 5.0 μM MDV-3100,22RV1 cells; ASO dose 4.0 nM + 5.0 μM MDV-3100,98 % untreated control
same,Proliferation (% untreated control) in 22RV1 without MDV-3100,22RV1 cells; ASO dose 4.0 nM,109 % untreated control
same,Proliferation (% untreated control) in 22RV1 cells with 0.04 μM MDV-3100,22RV1 cells; ASO dose 13.4 nM + 0.04 μM MDV-3100,85 % untreated control
same,Proliferation (% untreated control) in 22RV1 cells with 0.2 μM MDV-3100,22RV1 cells; ASO dose 13.4 nM + 0.2 μM MDV-3100,96 % untreated control
same,Proliferation (% untreated control) in 22RV1 cells with 1.0 μM MDV-3100,22RV1 cells; ASO dose 13.4 nM + 1.0 μM MDV-3100,82 % untreated control
same,Proliferation (% untreated control) in 22RV1 cells with 5.0 μM MDV-3100,22RV1 cells; ASO dose 13.4 nM + 5.0 μM MDV-3100,85 % untreated control
same,Proliferation (% untreated control) in 22RV1 without MDV-3100,22RV1 cells; ASO dose 13.4 nM,99 % untreated control
same,Percent inhibition of TMPRSS2 expression,"TMPRSS2 mRNA [1]; CSS + DHT medium, 0.04 μM",0%
same,Percent inhibition of TMPRSS2 expression,"TMPRSS2 mRNA [1]; CSS + DHT medium, 0.2 μM",0%
same,Percent inhibition of TMPRSS2 expression,"TMPRSS2 mRNA [1]; CSS + DHT medium, 1 μM",0%
same,Percent inhibition of TMPRSS2 expression,"TMPRSS2 mRNA [1]; CSS + DHT medium, 5.0 μM",3%
same,Percent inhibition of TMPRSS2 expression,"TMPRSS2 mRNA [1]; complete medium, 0.04 μM",0%
same,Percent inhibition of TMPRSS2 expression,"TMPRSS2 mRNA [1]; complete medium, 0.2 μM",2%
same,Percent inhibition of TMPRSS2 expression,"TMPRSS2 mRNA [1]; complete medium, 1 μM",4%
same,Percent inhibition of TMPRSS2 expression,"TMPRSS2 mRNA [1]; complete medium, 5.0 μM",0%
same,Percent inhibition of full-length AR,"full length AR mRNA; CSS + DHT medium, 1.34 nM",2%
same,Percent inhibition of full-length AR,"full length AR mRNA; CSS + DHT medium, 4.0 nM",13%
same,Percent inhibition of full-length AR,"full length AR mRNA; CSS + DHT medium, 13.4 nM",22%
same,Percent inhibition of full-length AR,"full length AR mRNA; complete medium, 1.34 nM",6%
same,Percent inhibition of full-length AR,"full length AR mRNA; complete medium, 4.0 nM",0%
same,Percent inhibition of full-length AR,"full length AR mRNA; complete medium, 13.4 nM",11%
same,Percent inhibition of full-length AR,"full length AR mRNA; complete medium, 40 nM",17%
same,Percent inhibition of AR V7 variant,"AR V7 variant mRNA; CSS + DHT medium, 1.34 nM",19%
same,Percent inhibition of AR V7 variant,"AR V7 variant mRNA; CSS + DHT medium, 4.0 nM",19%
same,Percent inhibition of AR V7 variant,"AR V7 variant mRNA; CSS + DHT medium, 13.4 nM",32%
same,Percent inhibition of AR V7 variant,"AR V7 variant mRNA; complete medium, 1.34 nM",0%
same,Percent inhibition of AR V7 variant,"AR V7 variant mRNA; complete medium, 4.0 nM",0%
same,Percent inhibition of AR V7 variant,"AR V7 variant mRNA; complete medium, 13.4 nM",22%
same,Percent inhibition of AR V7 variant,"AR V7 variant mRNA; complete medium, 40 nM",26%
same,Percent inhibition of PSA expression,"PSA mRNA; CSS + DHT medium, 1.34 nM",8%
same,Percent inhibition of PSA expression,"PSA mRNA; CSS + DHT medium, 4.0 nM",23%
same,Percent inhibition of PSA expression,"PSA mRNA; CSS + DHT medium, 13.4 nM",29%
same,Percent inhibition of PSA expression,"PSA mRNA; complete medium, 1.34 nM",9%
same,Percent inhibition of PSA expression,"PSA mRNA; complete medium, 4.0 nM",11%
same,Percent inhibition of PSA expression,"PSA mRNA; complete medium, 13.4 nM",17%
same,Percent inhibition of PSA expression,"PSA mRNA; complete medium, 40 nM",27%
same,Percent inhibition of TMPRSS2 expression,"TMPRSS2 mRNA [2]; CSS + DHT medium, 1.34 nM",0%
same,Percent inhibition of TMPRSS2 expression,"TMPRSS2 mRNA [2]; CSS + DHT medium, 4.0 nM",3%
same,Percent inhibition of TMPRSS2 expression,"TMPRSS2 mRNA [2]; CSS + DHT medium, 13.4 nM",1%
same,Percent inhibition of TMPRSS2 expression,"TMPRSS2 mRNA [2]; complete medium, 1.34 nM",15%
same,Percent inhibition of TMPRSS2 expression,"TMPRSS2 mRNA [2]; complete medium, 4.0 nM",9%
same,Percent inhibition of TMPRSS2 expression,"TMPRSS2 mRNA [2]; complete medium, 13.4 nM",14%
same,Percent inhibition of TMPRSS2 expression,"TMPRSS2 mRNA [2]; complete medium, 40 nM",4%
